Experiments:
MCF-7 cells = test: Xenograft Tumor Model, MCF-7 (ER+ Breast cancer) mouse model; format: in vivo; details: MCF-7 xenograft mice, 50 mg/kg p.o.
Experimental: Mice were inoculated with MCF-7 cells subcutaneously on the 2nd right mammary fat pad with the single cell suspension of 95% viable tumor cells (1×10^7) in 100 μL DMEM Matrigel mixture (1:1 ratio) without serum for the tumor development. The treatment was started when the mean tumor size reached approximately 226 mm^3, with individual tumor size ranging from 185-245 mm^3. Animals were randomly distributed into treatment groups of 10 animals each and dosed with vehicle and indicated compounds at indicated dosage and frequency provided in FIG. 4 and Table 3. In FIG. 4, the bottom line with star is Compound 5A (200 mg/kg p.o. qd×24)+Palbociclib (50 mg/kg p.o. pd×24). Tumor volumes were evaluated twice per week to calculate tumor volume over time, and mice were weighed twice per week as a surrogate for signs of toxicity. Tumor growth inhibition (TGI) was calculated using the following equation TGI=(1−(Td−T0)/(Cd−C0))×100%. Td and Cd are the mean tumor volumes of the treated and control animals, and TO and C0 are the mean tumor volumes of the treated and control animals at the start of the experiment. The tumor regression was defined as individual tumor volume (TV) decrease (terminal TV compared to initial TV). The percent tumor regression was calculated using the formula: (1−(Td/T0))×100%.

ZR-75-1 cells = test: CTG Assay (CellTiter-Glo Luminescent Cell Viability Assay), cell proliferation; format: cell-based; details: Homo sapiens, 160 nM, 72 h
Experimental: Cell proliferation was measured using the CellTiter-Glo® Luminescent Cell Viability Assay. The assay involved the addition of a single reagent (CellTiter-Glo® Reagent) directly to cells cultured in serum-supplemented medium. ZR-75-1 (ATCC® CRL-1500) cells were cultured according to ATCC recommendations and were seeded at 10,000 cells per well.
Compound 5A and Palbociclib were prepared as a DMSO stock solution (10 mM). Plates were incubated at 37° C., 5% CO2 for 72 h and then equilibrated at room temperature for approximately 30 min. An equal-volume amount of CellTiter-Glo® Reagent (100 μL) was added to each well. Plates were mixed for 2 min on an orbital shaker to induce cell lysis and then incubated at RT for 10 min to stabilize the luminescent signal. Luminescence (RLU (relative light unit)) was recorded using a SpectraMAX, M5e plate reader according to CellTiter-Glo protocol. Percent inhibition was calculated using the following formula: % inhibition=(RLU*100/(RLU of the cell background)). IC50 of each compound was calculated using GraphPad Prism by nonlinear regression analysis.

SMILES: CC(=O)c1c(C)c2cnc(Nc3ccc(N4CCNCC4)cn3)nc2n(C2CCCC2)c1=O [Palbociclib]
- TUMOR REGRESSION % (DAY 23) (MCF-7 cells): 0%
- inhibition at 0.16 µM (ZR-75-1 cells): 20%

Reference: US20230158048A1, “COMBINATIONS” (Recurium IP Holdings, LLC, priority 2020, published 2023)
